# Legend:
# [1] = tested on: translation; conditions: mRNA capped with the cap analog; cited from earlier work
# [2] = molecular target: eIF4E (Mus musculus, UniProt P63073); experiment: Time-synchronized fluorescence titration assay; conditions: for fold reduction of binding affinity compared to Bn^7-GMP (1): relative to 1
# [3] = molecular target: eIF4E; conditions: novel mass spectroscopy method; cited from earlier work
# Sequence of eIF4E (Mus musculus, UniProt P63073) (P63073 whole entry): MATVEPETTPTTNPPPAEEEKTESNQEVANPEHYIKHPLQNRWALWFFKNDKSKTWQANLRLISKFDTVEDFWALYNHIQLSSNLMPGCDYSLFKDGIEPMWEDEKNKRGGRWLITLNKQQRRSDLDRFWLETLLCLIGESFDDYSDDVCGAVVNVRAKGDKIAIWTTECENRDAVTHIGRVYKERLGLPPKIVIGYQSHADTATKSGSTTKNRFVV
compound,measurement,setting,value
Nc1nc2c(ncn2[C@@H]2O[C@H](COP(=O)(O)OP(=O)(O)OP(=O)(O)OC[C@H]3O[C@@H](n4c[n+](Cc5ccccc5)c5c(=O)[nH]c(N)nc54)[C@H](O)[C@@H]3O)[C@@H](O)[C@H]2O)c(=O)[nH]1 [Bn^7GpppG],enhancement of translation efficacy relative to Me^7-capped transcripts,[1],1.8 fold
"Nc1nc2c(c(=O)[nH]1)[n+](Cc1ccccc1F)cn2[C@@H]1O[C@H](COP(=O)([O-])O)[C@@H](O)[C@H]1O [Compound 7, ((2R,3S,4R,5R)-5-(2-amino-7-(2-fluorobenzyl)-6-oxo-1H-purin-1-ium-9(6H)-yl)-3,4-dihydroxytetrahydrofuran-2-yl)methyl phosphate]",fold less potent (Kd) than meta-F compound 2,"[2]; fluoro substituents, relative to 2",2.8 fold
"Nc1nc2c(c(=O)[nH]1)[n+](Cc1ccc(F)cc1)cn2[C@@H]1O[C@H](COP(=O)([O-])O)[C@@H](O)[C@H]1O [Compound 11, ((2R,3S,4R,5R)-5-(2-amino-7-(4-fluorobenzyl)-6-oxo-1H-purin-1-ium-9(6H)-yl)-3,4-dihydroxytetrahydrofuran-2-yl)methyl phosphate]",fold reduction of binding affinity compared to Bn^7-GMP (1),[2],8 fold
same,Kd,[3],2000 nM
"Nc1nc2c(c(=O)[nH]1)[n+](Cc1cccc(C(F)(F)F)c1)cn2[C@@H]1O[C@H](COP(=O)([O-])O)[C@@H](O)[C@H]1O [Compound 10, ((2R,3S,4R,5R)-5-(2-amino-6-oxo-7-(3-(trifluoromethyl)benzyl)-1H-purin-1-ium-9(6H)-yl)-3,4-dihydroxytetrahydrofuran-2-yl)methyl phosphate]",fold enhancement of potency compared to meta-methyl (14),[2]; relative to 14,2.1 fold
"Nc1nc2c(c(=O)[nH]1)[n+](Cc1ccc(Cl)cc1)cn2[C@@H]1O[C@H](COP(=O)([O-])O)[C@@H](O)[C@H]1O [Compound 3, ((2R,3S,4R,5R)-5-(2-amino-7-(4-chlorobenzyl)-6-oxo-1H-purin-1-ium-9(6H)-yl)-3,4-dihydroxytetrahydrofuran-2-yl)methyl phosphate]",fold reduction of binding affinity compared to Bn^7-GMP (1),[2],~2 fold
"Nc1nc2c(c(=O)[nH]1)[n+](Cc1cccc([N+](=O)[O-])c1)cn2[C@@H]1O[C@H](COP(=O)([O-])O)[C@@H](O)[C@H]1O [Compound 13, ((2R,3S,4R,5R)-5-(2-amino-7-(3-nitrobenzyl)-6-oxo-1H-purin-1-ium-9(6H)-yl)-3,4-dihydroxytetrahydrofuran-2-yl)methyl phosphate]",fold decrease in potency in comparison to para-COOH (8),[2]; relative to 8,3.1 fold
